These results are taken from patent publication US10004792B2, “Peptides and combination of peptides for use in immunotherapy against various cancers” (immatics biotechnologies GmbH, priority 2015, dated 2018).

One assay relates to CD8+ T cells. The assay can be described thus: In vitro immunogenicity: T-cell priming with aAPCs loaded with peptide/MHC and anti-CD28, multimer staining. Type of assay: cell-based, human. Conditions: for Wells positive [%]: in vitro immunogenicity of HLA class I peptides, peptide-specific multimer staining after aAPC priming of CD8+ T cells; for Wells (in vitro immunogenicity): healthy donor CD8+ T cells, three stimulation cycles, multimer readout. The text has this:
In order to obtain information regarding the immunogenicity of the TUMAPs of the present invention, the inventors performed investigations using an in vitro T-cell priming assay based on repeated stimulations of CD8+ T cells with artificial antigen presenting cells (aAPCs) loaded with peptide/MHC complexes and anti-CD28 antibody.
In order to perform in vitro stimulations by artificial antigen presenting cells loaded with peptide-MHC complex (pMHC) and anti-CD28 antibody, the inventors first isolated CD8+ T cells from fresh HLA-A*02 leukapheresis products via positive selection using CD8 microbeads (Miltenyi Biotec, Bergisch-Gladbach, Germany) of healthy donors obtained from the University clinics Mannheim, Germany, after informed consent.
PBMCs and isolated CD8+ lymphocytes were incubated in T-cell medium (TCM) until use consisting of RPMI-Glutamax (Invitrogen, Karlsruhe, Germany) supplemented with 10% heat inactivated human AB serum (PAN-Biotech, Aidenbach, Germany), 100 U/ml Penicillin/100 μg/ml Streptomycin (Cambrex, Cologne, Germany), 1 mM sodium pyruvate (CC Pro, Oberdorla, Germany), 20 µg/ml Gentamycin (Cambrex). 2.5 ng/ml IL7 (PromoCell, Heidelberg, Germany) and 10 U/ml IL-2 (Novartis Pharma, Nurnberg, Germany) were also added to the TCM at this step.
Generation of pMHC/anti-CD28 coated beads, T-cell stimulations and readout was performed in a highly defined in vitro system using four different pMHC molecules per stimulation condition and 8 different pMHC molecules per readout condition.
The purified co-stimulatory mouse IgG2a anti human CD28 Ab 9.3 (Jung et al., 1987) was chemically biotinylated using Sulfo-N-hydroxysuccinimidobiotin as recommended by the manufacturer (Perbio, Bonn, Germany). Beads used were 5.6 μm diameter streptavidin coated polystyrene particles (Bangs Laboratories, Illinois, USA).
pMHC used for positive and negative control stimulations were A*0201/MLA-001 (peptide […] (SEQ ID NO. 303) from modified Melan-A/MART-1) and A*0201/DDX5-001 ([…] from DDX5, SEQ ID NO. 304), respectively.
800.000 beads/200 μl were coated in 96-well plates in the presence of 4×12.5 ng different biotin-pMHC, washed and 600 ng biotin anti-CD28 were added subsequently in a volume of 200 μl. Stimulations were initiated in 96-well plates by co-incubating 1×10^6 CD8+ T cells with 2×10^5 washed coated beads in 200 μI TCM supplemented with 5 ng/ml IL-12 (PromoCell) for 3 days at 37° C. Half of the medium was then exchanged by fresh TCM supplemented with 80 U/ml IL-2 and incubating was continued for 4 days at 37° C. This stimulation cycle was performed for a total of three times. For the pMHC multimer readout using 8 different pMHC molecules per condition, a two-dimensional combinatorial coding approach was used as previously described (Andersen et al., 2012) with minor modifications encompassing coupling to 5 different fluorochromes. Finally, multimeric analyses were performed by staining the cells with Live/dead near IR dye (Invitrogen, Karlsruhe, Germany), CD8-FITC antibody clone SK1 (BD, Heidelberg, Germany) and fluorescent pMHC multimers. For analysis, a BD LSRII SORP cytometer equipped with appropriate lasers and filters was used. Peptide specific cells were calculated as percentage of total CD8+ cells. Evaluation of multimeric analysis was done using the FlowJo software (Tree Star, Oreg., USA). In vitro priming of specific multimer+CD8+ lymphocytes was detected by comparing to negative control stimulations.

Another assay has as its system HLA-A*24. The experiment in a line: MHC binding assay (UV-ligand exchange, beta2m ELISA), HLA-A*24. Conditions: peptide exchange yield, binding to HLA-A*24, UV-ligand exchange, β2m ELISA. On the set-up: species or system human. The text has this:
Candidate peptides for T cell based therapies according to the present invention were further tested for their MHC binding capacity (affinity). The individual peptide-MHC complexes were produced by UV-ligand exchange, where a UV-sensitive peptide is cleaved upon UV-irradiation, and exchanged with the peptide of interest as analyzed. Only peptide candidates that can effectively bind and stabilize the peptide-receptive MHC molecules prevent dissociation of the MHC complexes. To determine the yield of the exchange reaction, an ELISA was performed based on the detection of the light chain (β2m) of stabilized MHC complexes. The assay was performed as generally described in Rodenko et al. (Rodenko et al., 2006).
96 well MAXISorp plates (NUNC) were coated over night with 2 ug/ml streptavidin in PBS at room temperature, washed 4× and blocked for 1 h at 37° C. in 2% BSA containing blocking buffer. Refolded HLA-A*02:01/MLA-001 monomers served as standards, covering the range of 15-500 ng/ml. Peptide-MHC monomers of the UV-exchange reaction were diluted 100 fold in blocking buffer. Samples were incubated for 1h at 37° C., washed four times, incubated with 2 ug/ml HRP conjugated anti-62m for 1 h at 37° C., washed again and detected with TMB solution that is stopped with […]. Absorption was measured at 450 nm. Candidate peptides that show a high exchange yield (preferably higher than 50%, most preferred higher than 75%) are generally preferred for a generation and production of antibodies or fragments thereof, and/or T cell receptors or fragments thereof, as they show sufficient avidity to the MHC molecules and prevent dissociation of the MHC complexes.

For “5 (GIVAHIQEV; listed as Homo sapiens) [compound 5]”, the “Wells positive [%]” value with CD8+ T cells was “+ (<20% = +)”.

As for “166 (YYVESGKLF; listed as Homo sapiens) [compound 166]”, the Peptide exchange result with HLA-A*24 is on record as “++++ (>=75% = ++++)”.

For the substance “216 (QYSSVFKSL; listed as Homo sapiens) [compound 216]”, the Peptide exchange result with HLA-A*24 is “++++ (>=75% = ++++)”.

On to “173 (IYSWILDHF; listed as Homo sapiens) [compound 173]”, for which, in the assay on HLA-A*24, the Peptide exchange result is on record as “++++ (>=75% = ++++)”.

Regarding “31 (TITETTVEV; listed as Homo sapiens) [compound 31]”, the “Wells positive [%]” value in the assay with CD8+ T cells is given as “+ (<20% = +)”.

Consider “197 (EYSLFPGQVVI; listed as Homo sapiens) [compound 197]”, for which, in the assay with CD8+ T cells, the “Wells positive [%]” value was “+ (<20% = +)”.

With “172 (TYTTVPRVAF; listed as Homo sapiens) [compound 172]”, in the assay with HLA-A*24, the Peptide exchange entry was “++++ (>=75% = ++++)”.

With “186 (IFPQFLYQF; listed as Homo sapiens) [compound 186]”, the Peptide exchange result with HLA-A*24 is recorded as “++++ (>=75% = ++++)”.

“29 (YLLDPSITL; listed as Homo sapiens) [compound 29]”: in the assay on CD8+ T cells, the “Wells positive [%]” value was “+ (<20% = +)”.

As to “177 (VYPWLGALL; listed as Homo sapiens) [compound 177]”, in the assay on HLA-A*24, the Peptide exchange result is given as “++++ (>=75% = ++++)”.

As to “179 (MYDSYWRQF; listed as Homo sapiens) [compound 179]”, the Peptide exchange entry in the assay on HLA-A*24 is on record as “++++ (>=75% = ++++)”.

In the case of “23 (SLFSDEFKV; listed as Homo sapiens) [compound 23]”, in the assay on CD8+ T cells, the “Wells positive [%]” value is “++++ (>=70% = ++++)”.

“291 (KLDETGNSL; listed as Homo sapiens) [compound 291]”: the “Wells (in vitro immunogenicity)” value in the assay with CD8+ T cells is “+ (<20% = +)”.

As to “296 (TYVDSSHTI; listed as Homo sapiens) [compound 296]”, the “Wells (in vitro immunogenicity)” value in the assay on CD8+ T cells is “+ (<20% = +)”.

As for “295 (YYPGVILGF; listed as Homo sapiens) [compound 295]”, the “Wells (in vitro immunogenicity)” value in the assay with CD8+ T cells is “++ (20%-49% = ++)”.

As to “282 (KFVDSTFYL; listed as Homo sapiens) [compound 282]”, the Peptide exchange result in the assay on HLA-A*24 is “++++ (>=75% = ++++)”.

Turning to “278 (RYISDQLFTNF; listed as Homo sapiens) [compound 278]”, the Peptide exchange entry in the assay with HLA-A*24 is “++++ (>=75% = ++++)”.

Consider “298 (RYLEGTSCI; listed as Homo sapiens) [compound 298]”, for which the “Wells (in vitro immunogenicity)” value in the assay on CD8+ T cells is “+ (<20% = +)”.

For the substance “218 (YYKSTSSAF; listed as Homo sapiens) [compound 218]”, the “Wells positive [%]” value with CD8+ T cells is recorded as “+ (<20% = +)”.

Take “269 (YFIDSTNLKTHF; listed as Homo sapiens) [compound 269]”: in the assay with CD8+ T cells, the “Wells positive [%]” value is “+ (<20% = +)”.

With “202 (VYWDSAGAAHF; listed as Homo sapiens) [compound 202]”, the Peptide exchange result with HLA-A*24 is listed as “++++ (>=75% = ++++)”.

“184 (VFQNFPLLF; listed as Homo sapiens) [compound 184]”: in the assay with HLA-A*24, the Peptide exchange result was “++++ (>=75% = ++++)”.

Turning to “193 (RFHPTPLLL; listed as Homo sapiens) [compound 193]”, the Peptide exchange entry in the assay with HLA-A*24 is recorded as “++++ (>=75% = ++++)”.

With “230 (KLQNIMMLL; listed as Homo sapiens) [compound 230]”, the “Wells positive [%]” value with CD8+ T cells is recorded as “++++ (>=70% = ++++)”.

Regarding “300 (AYVLRLETL; listed as Homo sapiens) [compound 300]”, in the assay with CD8+ T cells, the “Wells (in vitro immunogenicity)” value is “+ (<20% = +)”.

For “211 (YYLEVGKTLI; listed as Homo sapiens) [compound 211]”, in the assay on HLA-A*24, the Peptide exchange result is listed as “++++ (>=75% = ++++)”.

In the case of “196 (LYIDRPLPYL; listed as Homo sapiens) [compound 196]”, in the assay with CD8+ T cells, the “Wells positive [%]” value was “++++ (>=70% = ++++)”.

On to “192 (SYALLTYMI; listed as Homo sapiens) [compound 192]”, for which the Peptide exchange result with HLA-A*24 is given as “++++ (>=75% = ++++)”.

Regarding “210 (IYTMIYRNL; listed as Homo sapiens) [compound 210]”, the Peptide exchange entry in the assay with HLA-A*24 is on record as “++++ (>=75% = ++++)”.

With “274 (AYLHSHALI; listed as Homo sapiens) [compound 274]”, in the assay on HLA-A*24, the Peptide exchange result is recorded as “++++ (>=75% = ++++)”.

“277 (VYQGHTALL; listed as Homo sapiens) [compound 277]”: the Peptide exchange entry in the assay with HLA-A*24 was “++++ (>=75% = ++++)”.

As for “217 (FFPPTRQMGLLF; listed as Homo sapiens) [compound 217]”, in the assay with HLA-A*24, the Peptide exchange entry is recorded as “++++ (>=75% = ++++)”.

With “267 (KYMVYPQTF; listed as Homo sapiens) [compound 267]”, the Peptide exchange entry with HLA-A*24 was “++++ (>=75% = ++++)”.

As for “280 (RYPDNLKHLYL; listed as Homo sapiens) [compound 280]”, in the assay with HLA-A*24, the Peptide exchange entry was “++++ (>=75% = ++++)”.

As to “276 (VYGFQWRHF; listed as Homo sapiens) [compound 276]”, the Peptide exchange entry with HLA-A*24 is listed as “++++ (>=75% = ++++)”.

On to “195 (TYSVSFPMF; listed as Homo sapiens) [compound 195]”, for which, in the assay with HLA-A*24, the Peptide exchange entry is “++++ (>=75% = ++++)”.

As for “168 (KYQDILETI; listed as Homo sapiens) [compound 168]”, the Peptide exchange entry in the assay with HLA-A*24 is listed as “++++ (>=75% = ++++)”.

Consider “175 (YYEVHKELF; listed as Homo sapiens) [compound 175]”, for which the Peptide exchange result with HLA-A*24 is on record as “++++ (>=75% = ++++)”.

For the substance “161 (IYLVSIPEL; listed as Homo sapiens) [compound 161]”, in the assay on HLA-A*24, the Peptide exchange entry is on record as “++++ (>=75% = ++++)”.

Regarding “228 (KYTSWYVAL; listed as Homo sapiens) [compound 228]”, in the assay on HLA-A*24, the Peptide exchange result was “++++ (>=75% = ++++)”.

Take “289 (KYPVEWAKF; listed as Homo sapiens) [compound 289]”: in the assay on HLA-A*24, the Peptide exchange entry was “++++ (>=75% = ++++)”.

In the case of “181 (LYLDIINLF; listed as Homo sapiens) [compound 181]”, the Peptide exchange entry in the assay on HLA-A*24 is “++++ (>=75% = ++++)”.

In the case of “194 (EFGSLHLEFL; listed as Homo sapiens) [compound 194]”, the Peptide exchange entry in the assay with HLA-A*24 was “+ (<20% = +)”.

Regarding “160 (VYTLDIPVL; listed as Homo sapiens) [compound 160]”, in the assay with HLA-A*24, the Peptide exchange entry is recorded as “++++ (>=75% = ++++)”.

For “272 (QYLQDAYSF; listed as Homo sapiens) [compound 272]”, the Peptide exchange result in the assay on HLA-A*24 was “++++ (>=75% = ++++)”.

As for “227 (IFLDYEAGTLSF; listed as Homo sapiens) [compound 227]”, in the assay on HLA-A*24, the Peptide exchange entry was “++++ (>=75% = ++++)”.

As for “271 (LYHDIFSRL; listed as Homo sapiens) [compound 271]”, the Peptide exchange entry in the assay with HLA-A*24 is “++++ (>=75% = ++++)”.

For “187 (TYLRDQHFL; listed as Homo sapiens) [compound 187]”, the Peptide exchange result in the assay on HLA-A*24 is reported as “++++ (>=75% = ++++)”.
